Assay results as given in ChEMBL document CHEMBL4184126, “Synthesis of novel 6-substituted amino-9-(β-d-ribofuranosyl)purine analogs and their bioactivities on human epithelial cancer cells” (Bioorg Med Chem Lett, 2018).

Tests used:
Assay type in all cases: functional, cell-based; call rule not given here
[1] = system: HCT-116; experiment: Antiproliferative activity against human HCT116 cells after 72 hrs by SRB assay
[2] = system: Huh-7; experiment: Antiproliferative activity against human HuH7 cells after 72 hrs by SRB assay
[3] = system: MCF7; experiment: Antiproliferative activity against human MCF7 cells after 72 hrs by SRB assay
[4] = Antiproliferative activity against human FOCUS cells after 72 hrs by SRB assay
[5] = system: Mahlavu; experiment: Antiproliferative activity against human Mahlavu cells after 72 hrs by SRB assay
[6] = system: HepG2; experiment: Antiproliferative activity against human HepG2 cells after 72 hrs by SRB assay
[7] = Homo sapiens, HCT-116, 72 h, read-out: IC50
[8] = Homo sapiens, Huh-7, 72 h, read-out: IC50
[9] = Homo sapiens, 72 h, read-out: IC50
[10] = Homo sapiens, Mahlavu, 72 h, read-out: IC50
[11] = Homo sapiens, HepG2, 72 h, read-out: IC50
[12] = Homo sapiens, MCF7, 72 h, read-out: IC50

SMILES	IC50 [1, 7]	IC50 [2, 8]	IC50 ([3]; mcf7)	IC50 ([1]; hct-116)	IC50 ([2]; huh-7)	IC50 [4, 9]	IC50 [5, 10]	IC50 [6, 11]	IC50 [3, 12]	IC50 ([6]; hepg2)	IC50 [4]	IC50 ([5]; mahlavu)
Nc1nc(N2CCN(c3ccc(F)cc3)CC2)c2ncn([C@@H]3O[C@H](CO)[C@@H](O)[C@H]3O)c2n1	30 µM	> 100 µM	Not Active									
Cc1ccc(N2CCN(c3nc(N)nc4c3ncn4[C@@H]3O[C@H](CO)[C@@H](O)[C@H]3O)CC2)cc1			Not Active	Not Active	Not Active							
OC[C@H]1O[C@@H](n2cnc3c(N4CCN(c5ccc(C(F)(F)F)cc5)CC4)nc(Cl)nc32)[C@H](O)[C@@H]1O	1 µM	1 to 2 µM				1 µM	3 µM	3 µM	4 µM			
CSc1ccc(Nc2ncnc3c2ncn3[C@@H]2O[C@H](CO)[C@@H](O)[C@H]2O)cc1	> 100 µM		Not Active		Not Active							
Nc1nc(N2CCN(C(c3ccccc3)c3ccccc3)CC2)c2ncn([C@@H]3O[C@H](CO)[C@@H](O)[C@H]3O)c2n1	20 µM	10 µM				20 µM	7 µM	20 µM	20 µM			
CC(C)c1ccc(Nc2ncnc3c2ncn3[C@@H]2O[C@H](CO)[C@@H](O)[C@H]2O)cc1	10 µM	60 µM				20 µM	40 µM	40 µM	50 µM			
OC[C@H]1O[C@@H](n2cnc3c(Nc4ccc(N5CCOCC5)cc4)ncnc32)[C@H](O)[C@@H]1O				Not Active	Not Active				80 µM			
OC[C@H]1O[C@@H](n2cnc3c(N4CCN(C5CCCCC5)CC4)ncnc32)[C@H](O)[C@@H]1O	> 100 µM		Not Active		Not Active							
Cc1ccc(N2CCN(c3ncnc4c3ncn4[C@@H]3O[C@H](CO)[C@@H](O)[C@H]3O)CC2)cc1	70 µM				Not Active	40 µM	> 100 µM		> 100 µM	Not Active		
CN(C)c1ccc(Nc2ncnc3c2ncn3[C@@H]2O[C@H](CO)[C@@H](O)[C@H]2O)cc1	40 µM	80 µM				20 µM	30 µM	30 µM	30 µM			
OC[C@H]1O[C@@H](n2cnc3c(NCCC4=CCCCC4)nc(Cl)nc32)[C@H](O)[C@@H]1O	90 µM	20 µM				50 µM	30 µM	40 µM	30 µM			
OC[C@H]1O[C@@H](n2cnc3c(N4CCN(c5ncccn5)CC4)ncnc32)[C@H](O)[C@@H]1O	> 100 µM				Not Active				40 µM			
OC[C@H]1O[C@@H](n2cnc3c(NCCC4=CCCCC4)ncnc32)[C@H](O)[C@@H]1O	6 µM	> 100 µM					> 100 µM	1 µM	3 µM		Not Active	
Nc1nc(N2CCN(c3ccccc3)CC2)c2ncn([C@@H]3O[C@H](CO)[C@@H](O)[C@H]3O)c2n1	30 µM	50 µM	Not Active			9 µM		> 100 µM				Not Active
Nc1nc(N2CCN(c3ncccn3)CC2)c2ncn([C@@H]3O[C@H](CO)[C@@H](O)[C@H]3O)c2n1			Not Active	Not Active	Not Active							
OC[C@H]1O[C@@H](n2cnc3c(NCCNc4ccccc4)ncnc32)[C@H](O)[C@@H]1O	30 µM				Not Active				> 100 µM			
Nc1nc(Cl)nc2c1ncn2[C@H]1C[C@H](O)[C@@H](CO)O1 [CLADRIBINE]	< 0.1 µM	0.4 to 0.9 µM				0.4 µM	0.1 µM	0.04 µM				
Nc1nc(F)nc2c1ncn2[C@@H]1O[C@H](CO)[C@@H](O)[C@@H]1O [FLUDARABINE]	8 µM	30 µM				10 µM	10 µM	20 µM	15 µM			
O=c1[nH]cc(F)c(=O)[nH]1 [FLUOROURACIL]	4 µM	30 µM				4 µM	10 µM		3 µM			
